Results reported in EP0609032A1, “Aromatic imine compounds, pharmaceutical composition thereof, useful as protein synthesis inhibitors” (NORSK HYDRO A/S, priority 1993, dated 1994).
Entries after “also recorded” stand apart in the source; their conditions may differ.

Assays:
Assay type in all cases: cell-based
[1] = system: 3T3 cells (derived from mouse embryo); experiment: Rate of protein synthesis in 3T3 cells; settings: Figure 5
From the text: Balb 3T3-A cells were isolated by Aaronsen and Todaro (J. Cell Physiol. 72, (1968)) 41-148) and were provided by Dr. T.Ege (Karolinska Institutet, Stockholm) in 1980 and have since been cultivated in MEM medium (Hank's salts) supplemented with 15% newborn bovine serum.
(§1) The cells are routinely grown as monolayers in tissue culture flasks. The cells were kept in continuous exponential growth by frequent reculturing, i.e. every second or third day.
(§2) During reculturing as well as during experiments the cells were kept in a walk-in incubator at 37°C.
(§3) The rate of protein synthesis was calculated as described previously (Rønning et al., J. Cell Physiol., 107: 47-57, (1981)). Briefly, cellular protein was labeled to saturation during a 2-day preincubation with [¹⁴C]-valine of constant specific radioactivity (0.5 Ci/mol) prior to the experiment. This was achieved by using a high concentration of valine so that the dilution of [¹⁴C]- valine by intracellular valine and by proteolytically generated valine will be negligible (Rønning et al., Exp. Cell Res., 123: 63-72, (1979)), thus keeping the specific radioactivity at a constant level. The rate of protein synthesis was calculated from the incorporation of [³H]-valine of constant specific activity. The incorporated measurements were related to the total of [¹⁴C]-radioactivity in protein at the beginning of the respective measurement periods and expressed as the percentage per hr (Rønning et al., J. Cell. Physiol., 107: 47-57, (1981)).
In Figure 5 the effect of compounds 3 and 7 on the rate of the protein synthesis of 3T3 cells (derived from mouse embryo) is shown.

[2] = system: human pancreatic carcinoma cell line PANC-1; experiment: Rate of protein synthesis and cell inactivation ([14C]-radioactivity) in PANC-1 cells; settings: for cell inactivating effect at concentrations (decline in [¹⁴C]-radioactivity): decrease in [14C]-radioactivity is a sign of cell death
Method: PANC-1 cells were purchased from the American Type Culture Collection (ATCC) in 1990. These cells were derived from a human adenocarcinoma of ductal origin (Lieber et al, Int. J. Cancer 15, (1975) 741-747).
as §1, §2, §3
In Figures 6a) and b) the human pancreatic carcinoma cell line PANC-1, cultivated in the medium MEM (with new born calf serum), was used .
In Figures 7a) and b) the human pancreatic carcinoma cell line PANC-1, cultivated in the medium E2a (with human and horse serum), was used .

[3] = system: non-malignant cell line V79 (Chinese hamster lung cells); experiment: Rate of protein synthesis in V79 cells; settings: Figure 4
From the text: V79 379-A cells were provided by Dr. Laszlo Révész (Karolinska Institutet, Stockholm) in 1976 and have since been cultivated in MEM medium (Hank's salts) supplemented with 15% newborn bovine serum. These cells are a clone of the line V79, isolated from Chinese hamster normal lung tissue and established in culture by Ford and Yerganian (see J. Natl. Cancer Inst. 21, (1958) 393-425).
as §1, §2, §3
In Figure 4 the effect of two preferred imines according to the invention, compounds 3 and 7 , on the rate of protein synthesis in the non-malignant cell line V79 (Chinese hamster lung cells).

[4] = system: human NHIK 3025/MEM cervix carcinoma cells; experiment: Rate of protein synthesis ([3H]-valine incorporation) in NHIK 3025 cells; settings: NHIK 3025/MEM cells, 1 hour treatment with [3H]-valine, compared to prior art compound 15
From the text: Human cells of the established line NHIK 3025, originating from a cervical carcinoma in situ (Nordbye, K. and Oftebro, R., Exp. Cell Res., 58: 458, (1969)), (Oftebro, R. and Nordbye, K., Exp. Cell Res., 58: 459-460, (1969)) were cultivated in medium E2a (Puck et al., J. Exp. Med., 106: 145-165, (1957)) supplemented with 20% human (prepared at the laboratory) and 10% horse serum (Grand Island Biological Co.).
as §1, §2, §3
In Figure 1 the rate of protein synthesis (as % of control rate) is shown in relation to the concentration of imine used in the treatment of human NHIK 3025/MEM cervix carcinoma cells cultivated in vitro. The treatment period was for 1 hour during which the cell culture medium contained [³H]-valine in addition to the test compound. […]

[5] = system: murine B16 melanoma cells; experiment: Rate of protein synthesis in B16 melanoma cells; settings: Figure 3, compared to prior art compound 15
Method: as §3
In Figure 3, the effect of two imine compounds, 3 and 7, according to the invention and the effect of the prior art compound 15 on the protein synthesis of murine B16 melanoma cells is shown.

Row | SMILES | effect on the rate of the protein synthesis [1] | effect on the rate of protein synthesis [3] | rate of protein synthesis (as % of control rate) ([4]; Figure 1) | effect on the protein synthesis [5] | further results
1 | [2H]C1(c2ccccc2)OC[C@@H]([C@H]2OC(=O)C(O)=C2O)O1 (stereo partly drawn) [Compound 15, Sodium 5,6-0-Benzylidene-d1-L-Ascorbate, reference compound] | little effect | little or no inhibition |  |  | protein synthesis inhibiting activity ([2]; Figures 6a/6b, PANC-1 in medium MEM (with new born calf serum)): little protein synthesis inhibiting activity; protein synthesis inhibiting activity ([2]; Figures 7a/7b, PANC-1 in medium E2a (with human and horse serum)): little protein synthesis inhibiting activity
2 | COC(=O)c1ccc(C=NCCCCCCCCCCC(=O)O)cc1 [Compound 4, 11-(4-Carbomethoxy-benzylidene-Amino) -Undecanoic Acid] |  |  | inhibited to a greater degree; also recorded: strongest inhibition on protein synthesis |  | 
3 | O=C(O)CCCCCN=Cc1cccc([N+](=O)[O-])c1 [Compound 3, 6-(3-Nitrobenzylidene-Amino)-Hexanoic Acid] | strong protein synthesis inhibition | significantly inhibit protein synthesis | inhibited to a greater degree; also recorded: strongest inhibition on protein synthesis | much stronger protein synthesis inhibiting effect | 
4 | O=[N+]([O-])c1cccc(C=NCCCCO)c1 [Compound 7, 4-(3-Nitrobenzylidene-Amino)-Butan-1-ol] | strong protein synthesis inhibition | significantly inhibit protein synthesis; also recorded: slightly more effective than compound 3 |  | much stronger protein synthesis inhibiting effect | rate of protein synthesis (as % of control rate) ([4]; Figure 2): inhibited to a greater degree; also recorded: strongest inhibition on protein synthesis
5 | [2H]C(=NCCCN(C)C)c1ccccc1 [Compound 14, 1-(Benzylidene-d1-Amino)-3-(Dimethyl-amino)-Propane] |  |  |  |  | cell inactivating effect at concentrations (decline in [¹⁴C]-radioactivity) ([2]; Figure 6b, PANC-1 in medium MEM): above 2 mM; cell inactivating effect at concentrations (decline in [¹⁴C]-radioactivity) ([2]; Figure 7b, PANC-1 in medium E2a): above 2 mM
